Results: patent US20070259055A1, “Method of deactivating dust mite allergens” (priority 2000, published 2007)

Molecular target: T1, house dust mite (Dermatophagoides pteronyssinus) allergen (Der-pl) (Dermatophagoides pteronyssinus, UniProt P08176)
T1 construct: Test dust had been obtained from household vacuum cleaner bags; from tissue; host or cells: house dust (British; vacuum cleaner bags), sieved fraction smaller than 53 microns
T1 sequence (P08176 99-320): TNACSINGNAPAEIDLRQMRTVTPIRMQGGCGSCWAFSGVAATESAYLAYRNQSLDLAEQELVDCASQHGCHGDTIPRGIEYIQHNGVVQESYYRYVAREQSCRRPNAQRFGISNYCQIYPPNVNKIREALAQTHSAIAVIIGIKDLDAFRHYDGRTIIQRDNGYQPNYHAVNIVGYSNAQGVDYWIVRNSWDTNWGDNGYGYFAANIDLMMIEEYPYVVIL
Assay: Example 3: test liquid sprayed onto dust in petri dish, Der-pl ELISA
Assay type: biochemical
Protocol: Dust was collected from vacuum cleaner bags and passed through a series of sieves down to 53 microns. Clean petri dishes were labeled with the chemical to be tested and lined with filter paper. 0.3 g of dust was added to each dish and spread evenly over the filter paper. 0.1 g of dust was then removed from the filter paper for a control sample. The remaining dust was then redistributed evenly over the filter paper. 2.4 g+/−0.2 g of test chemical was sprayed onto the dust sample. The dust sample was left open to the air until the filter paper was dry. The dust was collected into eppendorfs and the weight of dust recovered was measured. 1 ml of 1% Bovine Serum Albumin-Phosphate Buffered Saline-Tween (BSA-PBS-T) was added to the control samples. 1 ml of 5% BSA-PBS-T was added to the test samples. The samples were left overnight in the refrigerator and then centrifuged for 5 minutes at 13,000 rpm. The supernatant was pipetted into an eppendorf for assay by Der-pl ELISA.
The test liquids were: • Distilled water • 2% Tea Tree Oil in distilled water (plus 0.1% Tween) • 2% Citronella Oil in distilled water (plus 0.10% Tween) • 1% Thymol in distilled water (plus 0.8% Tween) • 2% Hinoki Oil in distilled water (plus 0.1% Tween) • 2% Tannic Acid
Five replicates were completed for each test liquid. The allergen content of the control for each replicate was compared with the test sample allergen. The percentage reductions in allergen between the control and the test were determined for each replicate.

Structure (SMILES) | allergen reduction more than the water alone tests (test liquid sprayed onto dust (2% Tea Tree Oil or 1% Thymol in distilled water plus Tween), average of five replicates, water alone 34.2%) [%] | significance of allergen reduction versus water tests (test liquid sprayed onto dust, t-test versus water) | average allergen reduction (2% Tannic Acid sprayed onto dust, positive control, five replicates) [%]
Cc1ccc(C(C)C)c(O)c1 [Thymol, 6-isopropyl-m-cresol] | 23.6 | significant | 
O=C(OC[C@H]1O[C@@H](OC(=O)c2cc(O)c(O)c(OC(=O)c3cc(O)c(O)c(O)c3)c2)[C@H](OC(=O)c2cc(O)c(O)c(OC(=O)c3cc(O)c(O)c(O)c3)c2)[C@@H](OC(=O)c2cc(O)c(O)c(OC(=O)c3cc(O)c(O)c(O)c3)c2)[C@@H]1OC(=O)c1cc(O)c(O)c(OC(=O)c2cc(O)c(O)c(O)c2)c1)c1cc(O)c(O)c(OC(=O)c2cc(O)c(O)c(O)c2)c1 [tannic acid] |  |  | 99.15
